Measured values from PMC8300687, “A Fine-Tuned Lipophilicity/Hydrophilicity Ratio Governs Antibacterial Potency and Selectivity of Bifurcated Halogen Bond-Forming NBTIs” (Antibiotics, 2021).
Values after ≈ are worked out from the molar mass of the structure shown. Where two headings read alike, the source gives them in different places.

Key:
M. avium = assay: MIC, M. avium; type: cell-based
Procedure: (§1) Antimicrobial testing was carried out by the broth microdilution method in 96-well plate format following the Clinical and Laboratory Standards Institute (CLSI) guidelines and European Committee on Antimicrobial Susceptibility Testing (EUCAST) recommendations. Bacterial suspension of specific bacterial strain equivalent to 0.5 McFarland turbidity standard was diluted with cation-adjusted Mueller Hinton broth with TES (Thermo Fisher Diagnostic, Landsmeer, The Netherlands), to obtain a final inoculum of 10^5 CFU/mL. Compounds dissolved in DMSO and inoculum were mixed together and incubated for 18–20 h at 35 °C. Suspensions of Mycobacterium sp. were prepared into a tube of Middelbrook 7H9 broth supplemented with 5% OADC (Thermo Scientific, Trek Diagnostic Systems, West Sussex, UK) and incubated for at least 10 days. After incubation the minimal inhibitory concentration (MIC) values were determined by visual inspection as the lowest dilution of compounds showing no turbidity. Tetracycline was used as a positive control on every assay plate.

S. aureus (ATCC 29213) = assay: MIC broth microdilution, S. aureus ATCC 29213; type: cell-based
Procedure: as §1

[1] = system: P. aeruginosa RDK 184 (DSM 939); assay: MIC broth microdilution, P. aeruginosa; type: cell-based
Procedure: as §1

HUVEC = assay: Metabolic activity assessment (cytotoxicity), HUVEC; type: cell-based; details: Homo sapiens, metabolic activity after 72 h treatment
Procedure: Cells of the HepG2 line (ATCC® HB-8065™) and HUVEC (ATCC® CRL-1730™) were cultured in Dulbecco’s Modified Eagle Medium (DMEM; Sigma-Aldrich, St. Louis, MO, USA) supplemented with 10% heat-deactivated FBS (Gibco, Grand Island, NE, USA), 2 mM L-glutamine, 100 U/mL penicillin, 100 μg/mL streptomycin (all from Sigma-Aldrich, St. Louis, MO, USA) in a humidified chamber at 37 °C and 5% CO2. The experiments were carried out on passages 7–9 for both cell lines. The tested compounds were dissolved in DMSO and further diluted in culture medium to a desired final concentration. Cells were seeded into 96-well plates at 8 × 10^4 cells/mL (100 μL/well) and incubated for 24 h to attach onto the wells. Cells were treated with 1 μM and 50 μM of each compound of interest or corresponding vehicle as control. […] The metabolic activity was assessed after 72 h treatment using the CellTiter 96 Aqueous One Solution Cell Proliferation Assay (Promega, Madison, WI, USA), in accordance with the manufacturer’s instructions. The absorbance was measured at 492 nm on an automated microplate reader BioTek Synergy HT (BioTek Instruments, Inc., Winooski, VT, USA). Data are presented as the percentage of metabolic activity of control cells stimulated with vehicle or as IC50 value (mean ± SD) from two independent experiments, each conducted in duplicate or triplicate. IC50 values were calculated by a non-linear regression model using Graph Pad Prism 7 software.

S. pneumoniae (QA-10/02) = assay: MIC broth microdilution, S. pneumoniae; type: cell-based; details: Streptococcus pneumoniae
Procedure: as §1

E. coli (QA-11.3) = assay: MIC broth microdilution, E. coli QA-11.3; type: cell-based
Procedure: as §1

in vitro = details: for Papp at 4 h: PAMPA; for PAMPA permeability classification [low/high]: relative to reference drugs
Procedure: Prior to the measurements of solubility and permeability isocratic HPLC methods were developed. […] The individual method parameters for each compound are given in the Supplementary Materials Table S1.
A 96-well precoated three-layer PAMPA plates (Corning® Gentest™ Pre-coated PAMPA Plate System, Corning, NY, USA) were used according to the manufacturer’s instructions and as described previously with 300 µL of the donor solutions in the bottom compartment and 200 µL of the acceptor solution (pH 7.4 PBS) in the upper compartment at 37 °C and a 4-h incubation time. The initial and end donor solutions were injected at a 5 µL injection volume. The initial donor solutions were also diluted 100-fold and injected at a 100 µL injection volume to serve as external references for the end acceptor solutions which were injected at the same injection volume. The permeability calculations were made with a manufacturer-provided Excel spreadsheet directly from the measured peak areas accounting for the relevant dilutions and injection volumes.

MRSA (QA-11.6) = assay: MIC broth microdilution, MRSA QA-11.6; type: cell-based, methicillin-resistant S. aureus; details: Staphylococcus aureus, read-out: MIC MRSA (QA-11.6)
Procedure: as §1

E. coli D22 = assay: MIC broth microdilution, E. coli D22; type: cell-based; details: Escherichia coli
Procedure: as §1

[2] = system: S. alachua RDK 030c (QA-1482/04); assay: MIC broth microdilution, S. alachua; type: cell-based
Procedure: as §1

E. coli N43 (CGSC# 5583) = assay: MIC broth microdilution, E. coli N43; type: cell-based; details: for MIC: Escherichia coli
Procedure: as §1

S. aureus Topo IV = biological target: T1, S. aureus Topo IV (Staphylococcus aureus, UniProt Q2FYS4); assay: biochemical; details: mean of two to four measurements; read-out: Topoisomerase IV IC50 S. aureus
T1 construct: purchased Inspiralis (Norwich, UK)
Procedure: A Topo IV Relaxation High Throughput Plate assay kit, purchased from Inspiralis (Norwich. UK) was used to determine IC50 values of compounds on S. aureus and E. coli. […] Biotinylated oligonucleotide in wash buffer was immobilized onto the wells, and the excess oligonucleotide was washed off with wash buffer and ultrapure water. 1.5 U of S. aureus or E. coli […] enzyme was incubated together with 0.75 μg of supercoiled pNO1 plasmid as a substrate in the presence of 3 μL inhibitor solution in 10% DMSO and 0.008% Tween 20 at 37 °C for 30 min in a final reaction volume of 30 μL in dilution buffer (50 mM Tris-HCl (pH 7.5), 1 mM DTT, 1 mM EDTA, 40% (w/v) glycerol for S. aureus and 40 mM HEPES, KOH (pH 7.6), 100 mM potassium glutamate, 1 mM DTT, 1 mM EDTA, and 40% (v/v) glycerol for E. coli). The reactions were stopped by adding the TF buffer (50 mM NaOAc (pH 4.7), 50 mM NaCl, and 50 mM MgCl2) to allow the triplex formation (biotin-oligonucleotide-plasmid) for additional 30 min. Afterward, the unbound plasmid was washed off using TF buffer, and the solution of Promega Diamond dye in T10 buffer (10 mM Tris-HCl (pH 8.0), 1 mM EDTA) was added. […] IC50 value represents the mean of two to four independent measurements.

[3] = Mycobacterium avium; read-out: MIC M. avium
[4] = Staphylococcus aureus, ATCC29213; S. aureus ATCC 29213; read-out: S. aureus MIC (converted)
[5] = Staphylococcus aureus, ATCC29213; read-out: MIC S. aureus (ATCC 29213)
[6] = Pseudomonas aeruginosa, DSM939; read-out: MIC P. aeruginosa RDK 184 (DSM 939)
[7] = Escherichia coli, 20 h; read-out: MIC E. coli (QA-11.3)
[8] = resistant to cefoxitin, gentamicin, sulfamethoxazole, tetracycline
[9] = D22, mutation in the lpxC gene that increases membrane permeability, read-out: MIC E. coli D22
[10] = Salmonella; read-out: MIC S. alachua RDK 030c (QA-1482/04)
[11] = read-out: E. coli N43 MIC in molar
[12] = read-out: MIC E. coli N43 (CGSC# 5583)
[13] = Staphylococcus aureus, ATCC29213, read-out: MIC S. aureus (ATCC 29213)

T1 sequence (Q2FYS5 whole entry): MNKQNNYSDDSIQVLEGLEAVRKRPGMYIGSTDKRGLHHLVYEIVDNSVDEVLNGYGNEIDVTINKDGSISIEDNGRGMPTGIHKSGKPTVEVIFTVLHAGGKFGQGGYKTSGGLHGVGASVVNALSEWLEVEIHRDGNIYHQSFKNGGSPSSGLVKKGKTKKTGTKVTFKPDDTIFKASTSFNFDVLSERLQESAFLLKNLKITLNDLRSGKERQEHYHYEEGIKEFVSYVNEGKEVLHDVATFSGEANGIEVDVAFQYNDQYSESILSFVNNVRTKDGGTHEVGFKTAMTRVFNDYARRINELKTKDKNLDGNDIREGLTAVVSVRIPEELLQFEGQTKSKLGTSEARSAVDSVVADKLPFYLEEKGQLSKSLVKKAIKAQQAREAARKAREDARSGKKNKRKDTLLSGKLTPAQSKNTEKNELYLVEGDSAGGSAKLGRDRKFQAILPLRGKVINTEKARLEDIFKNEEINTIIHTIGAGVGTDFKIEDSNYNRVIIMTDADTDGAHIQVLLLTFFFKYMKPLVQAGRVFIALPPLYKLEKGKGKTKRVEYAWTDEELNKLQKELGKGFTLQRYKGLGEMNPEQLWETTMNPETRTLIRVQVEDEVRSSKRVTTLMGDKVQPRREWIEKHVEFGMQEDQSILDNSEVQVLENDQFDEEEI
T1 sequence (Q2FYS4 whole entry): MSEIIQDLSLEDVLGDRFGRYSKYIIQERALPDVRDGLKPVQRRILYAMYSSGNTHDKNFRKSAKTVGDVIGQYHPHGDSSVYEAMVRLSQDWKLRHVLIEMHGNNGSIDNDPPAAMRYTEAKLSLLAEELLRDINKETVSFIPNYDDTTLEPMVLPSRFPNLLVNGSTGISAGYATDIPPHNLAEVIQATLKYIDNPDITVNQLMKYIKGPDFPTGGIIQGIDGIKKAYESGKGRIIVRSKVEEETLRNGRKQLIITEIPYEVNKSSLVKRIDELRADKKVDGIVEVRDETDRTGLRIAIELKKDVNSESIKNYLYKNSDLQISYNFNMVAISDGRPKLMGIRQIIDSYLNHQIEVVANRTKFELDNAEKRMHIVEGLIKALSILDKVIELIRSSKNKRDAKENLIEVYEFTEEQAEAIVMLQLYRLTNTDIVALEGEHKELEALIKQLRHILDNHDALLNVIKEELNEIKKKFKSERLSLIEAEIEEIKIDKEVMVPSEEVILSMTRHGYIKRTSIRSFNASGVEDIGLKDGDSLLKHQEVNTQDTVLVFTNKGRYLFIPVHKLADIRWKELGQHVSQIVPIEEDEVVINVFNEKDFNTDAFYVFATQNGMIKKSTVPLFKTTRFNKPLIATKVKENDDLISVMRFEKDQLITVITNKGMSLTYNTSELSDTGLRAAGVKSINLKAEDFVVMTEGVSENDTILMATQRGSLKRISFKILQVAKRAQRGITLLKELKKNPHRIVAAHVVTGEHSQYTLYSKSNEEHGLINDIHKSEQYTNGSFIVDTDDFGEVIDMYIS

SMILES	MIC (M. avium; [3])	MIC (S. aureus (ATCC 29213); [4])	MIC (S. aureus (ATCC 29213); [5])	MIC [1, 6]	MIC (S. pneumoniae (QA-10/02))	MIC (E. coli (QA-11.3); [7])	Papp at 4 h (in vitro)	Papp at 4 h (in vitro; pH 7.4)	MIC (MRSA (QA-11.6); [8])	MIC (E. coli D22; [9])	MIC [2, 10]	MIC (E. coli N43 (CGSC# 5583); [11])	MIC (E. coli N43 (CGSC# 5583); [12])	IC50 (S. aureus Topo IV)	MIC (E. coli D22; D22, read-out: MIC E. coli D22)	other results
COc1ccc2nccc(CCN3CCC(NCc4nc5ccccc5n4C)CC3)c2n1 [Compound 3, 1-(2-(6-Methoxy-1,5-naphthyridin-4-yl)ethyl)-N-((1-methyl-1H-benzo[d]imidazol-2-yl)methyl)piperidin-4-amine]	> 128 µg/mL	2.32 µM	1 µg/mL	> 128 µg/mL	2 µg/mL (≈ 4.65 µM)	128 µg/mL (≈ 297 µM)	> 2.7 ×10⁻⁶ cm/s	5.4 ×10⁻⁶ cm/s	2 µg/mL (≈ 4.65 µM)	> 128 µg/mL	> 128 µg/mL	37.2 µM	16 µg/mL	> 100 µM		IC50 (HUVEC): > 50 µM
COc1ccc2nccc(CCN3CCC(NCc4cnn(-c5ccc(F)cc5)c4)CC3)c2n1 [Compound 4, N-((1-(4-Fluorophenyl)-1H-pyrazol-4-yl)methyl)-1-(2-(6-methoxy-1,5-naphthyridin-4-yl)ethyl)piperidin-4-amine]	128 µg/mL (≈ 278 µM)	4.34 µM	2 µg/mL	> 128 µg/mL	4 µg/mL (≈ 8.69 µM)	8 µg/mL (≈ 17.4 µM)	> 2.7 ×10⁻⁶ cm/s	14.2 ×10⁻⁶ cm/s	4 µg/mL (≈ 8.69 µM)	16 µg/mL (≈ 34.7 µM)	128 µg/mL (≈ 278 µM)	4.34 µM	2 µg/mL	> 100 µM		IC50 (HUVEC): 9.64 ± 0.03 µM
COc1ccc2nccc(CCN3CCC(NC(=O)c4cn5cccc(C#N)c5n4)CC3)c2n1 [Compound 7, 8-Cyano-N-(1-(2-(6-methoxy-1,5-naphthyridin-4-yl)ethyl)piperidin-4-yl)imidazo[1,2-a]pyridine-2-carboxamide]		281 µM			128 µg/mL (≈ 281 µM)			2.6 ×10⁻⁶ cm/s				281 µM	> 128 µg/mL	> 100 µM	> 128 µg/mL	MIC (M. avium; Mycobacterium avium, read-out: MIC M. avium): > 128 µg/mL; MIC (S. aureus (ATCC 29213); [13]): > 128 µg/mL; MIC ([1]; Pseudomonas aeruginosa, DSM939, read-out: MIC P. aeruginosa RDK 184 (DSM 939)): > 128 µg/mL; MIC (E. coli (QA-11.3); Escherichia coli, 20 h, read-out: MIC E. coli (QA-11.3)): > 128 µg/mL; PAMPA permeability classification [low/high] (in vitro): int erm ediat e; MIC (MRSA (QA-11.6)): > 128 µg/mL; MIC ([2]; Salmonella, read-out: MIC S. alachua RDK 030c (QA-1482/04)): > 128 µg/mL
COc1ccc2nccc(CCN3CCC(NCc4ccccc4)CC3)c2n1 [Compound 11]	> 128 µg/mL	10.6 µM	4 µg/mL	> 128 µg/mL	2 µg/mL (≈ 5.31 µM)	32 µg/mL (≈ 85 µM)	> 2.7 ×10⁻⁶ cm/s	10.9 ×10⁻⁶ cm/s	8 µg/mL (≈ 21.2 µM)	16 µg/mL (≈ 42.5 µM)	> 128 µg/mL	21.2 µM	8 µg/mL	> 100 µM		
COc1ccc2nccc(CCN3CCC(NCc4ccc(F)cc4)CC3)c2n1 [Compound 12]	32 µg/mL (≈ 81.1 µM)	2.54 µM	1 µg/mL	> 128 µg/mL	2 µg/mL (≈ 5.07 µM)	8 µg/mL (≈ 20.3 µM)	> 2.7 ×10⁻⁶ cm/s	12.1 ×10⁻⁶ cm/s	4 µg/mL (≈ 10.1 µM)	16 µg/mL (≈ 40.6 µM)	128 µg/mL (≈ 324 µM)	10.1 µM	4 µg/mL	> 100 µM		
COc1ccc2nccc(CCN3CCC(NCc4ccc(Cl)cc4)CC3)c2n1 [Compound 13]	4 µg/mL (≈ 9.73 µM)	0.3 µM		> 128 µg/mL	0.5 µg/mL (≈ 1.22 µM)	2 µg/mL (≈ 4.87 µM)	> 2.7 ×10⁻⁶ cm/s	13.2 ×10⁻⁶ cm/s	0.25 µg/mL (≈ 0.608 µM)	2 µg/mL (≈ 4.87 µM)	32 µg/mL (≈ 77.9 µM)	1.22 µM	0.5 µg/mL			MIC (S. aureus (ATCC 29213); [13]): 0.125 µg/mL
COc1ccc2nccc(CCN3CCC(NCc4ccc(Br)cc4)CC3)c2n1 [Compound 14]	2 µg/mL (≈ 4.39 µM)	0.07 µM	0.031 µg/mL	128 µg/mL (≈ 281 µM)	0.125 µg/mL (≈ 0.274 µM)	1 µg/mL (≈ 2.2 µM)	> 2.7 ×10⁻⁶ cm/s	31.5 ×10⁻⁶ cm/s	0.0625 µg/mL (≈ 0.137 µM)		16 µg/mL (≈ 35.1 µM)	0.27 µM	0.125 µg/mL		0.125 µg/mL (≈ 0.274 µM)	
COc1ccc2nccc(CCN3CCC(NCc4ccc(I)cc4)CC3)c2n1 [Compound 15]	1 µg/mL (≈ 1.99 µM)		0.0078 µg/mL	32 µg/mL (≈ 63.7 µM)	0.015 µg/mL (≈ 0.0299 µM)	1 µg/mL (≈ 1.99 µM)	> 2.7 ×10⁻⁶ cm/s	39.8 ×10⁻⁶ cm/s	0.0312 µg/mL (≈ 0.0622 µM)		8 µg/mL (≈ 15.9 µM)	0.16 µM	0.078 µg/mL		0.125 µg/mL (≈ 0.249 µM)	S. aureus MIC in molar (S. aureus (ATCC 29213); S. aureus ATCC 29213): 0.016 µM; MIC (S. aureus (ATCC 29213); Staphylococcus aureus, ATCC29213, 20 h; S. aureus ATCC 29213; read-out: S. aureus MIC (converted)): 0.01 µM; IC50 (HUVEC; 72 h): ~20 µM; E. coli N43 MIC in molar (E. coli N43 (CGSC# 5583); E. coli CGSC# 5583, AcrA knockout strain): 0.16 µM
COc1ccc2nccc(CCN3CCC(NCc4ccc(C(N)=O)cc4)CC3)c2n1 [Compound 17]	128 µg/mL (≈ 305 µM)	4.77 µM	2 µg/mL	> 128 µg/mL	16 µg/mL (≈ 38.1 µM)	128 µg/mL (≈ 305 µM)		0.31 ×10⁻⁶ cm/s	4 µg/mL (≈ 9.53 µM)	128 µg/mL (≈ 305 µM)	> 128 µg/mL	38.1 µM	16 µg/mL	> 100 µM		PAMPA permeability classification [low/high] (in vitro): low
COc1ccc2nccc(CCN3CCC(NCc4ccc(N(C)C)cc4)CC3)c2n1 [Compound 18]	128 µg/mL (≈ 305 µM)	0.31 µM		> 128 µg/mL	0.25 µg/mL (≈ 0.596 µM)	8 µg/mL (≈ 19.1 µM)	> 2.7 ×10⁻⁶ cm/s	16.7 ×10⁻⁶ cm/s	0.25 µg/mL (≈ 0.596 µM)	8 µg/mL (≈ 19.1 µM)	128 µg/mL (≈ 305 µM)	2.45 µM	1 µg/mL	> 100 µM		
